Reference: ChEMBL document CHEMBL1201862, “PubChem BioAssay data set” (2004)
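These data come from cells grown in 96-well plates and exposed to compound for 48 hours at five concentrations. Here, GI50 denotes the concentration required for 50% inhibition of growth.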 Active and inactive are the calls of the source. Cut-off read from the data, not from the text of the source: active = GI50 up to about 1.1 µM and inactive = higher.

How the values were obtained:
Experiment in all cases: NCI anticancer screen, dose series, 48 h
SK-MEL-28 = tested on: SK-MEL-28
SW-620 = tested on: SW-620
UACC-62 = tested on: UACC-62
MOLT-4 = tested on: MOLT-4
RXF 393 = tested on: RXF 393
COLO 205 = tested on: COLO 205
NCI-H522 = tested on: NCI-H522
HCC 2998 = tested on: HCC 2998
DU-145 = tested on: DU-145
MDA-MB-435 = tested on: MDA-MB-435
SF-295 = tested on: SF-295
MDA-N = tested on: MDA-N
MDA-MB-231 = tested on: MDA-MB-231
PC-3 = tested on: PC-3
UO-31 = tested on: UO-31
A498 = tested on: A498
SF-539 = tested on: SF-539
MCF7 = tested on: MCF7
SK-MEL-2 = tested on: SK-MEL-2
SN12C = tested on: SN12C

Row | SMILES | GI50 (SK-MEL-28) | GI50 (SW-620) | GI50 (UACC-62) | GI50 (MOLT-4) | GI50 (RXF 393) | GI50 (COLO 205) | GI50 (NCI-H522) | GI50 (HCC 2998) | GI50 (DU-145) | GI50 (MDA-MB-435) | GI50 (SF-295) | GI50 (MDA-N) | GI50 (MDA-MB-231) | GI50 (PC-3) | GI50 (UO-31) | GI50 (A498) | GI50 (SF-539) | GI50 (MCF7) | GI50 (SK-MEL-2) | GI50 (SN12C)
1 | CC(=O)OC12CC(C(F)(F)F)(C(F)(F)F)OC1(OC(C)=O)CC(C(F)(F)F)(C(F)(F)F)O2 (stereo not given) | 4.54 µM (inactive) | 5.43 µM (inactive) | 2.66 µM (inactive) | 1.06 µM (active) | 11.5 µM (inactive) | 3.95 µM (inactive) | 1.24 µM (inactive) | 9.08 µM (inactive) | 4.06 µM (inactive) | 2.13 µM (inactive) | 6.76 µM (inactive) | 5.92 µM (inactive) | 6.34 µM (inactive) | 0.805 µM (active) | 1.36 µM (inactive) | 2.14 µM (inactive) | 2.07 µM (inactive) | 0.426 µM (active) | 5.75 µM (inactive) | 4.66 µM (inactive)
2 | COc1ccc2nc3cc(Cl)ccc3c(NCCNC(=O)Cn3c(=O)n(C)c(=O)c4c3nc3c(c(=O)n(C)c(=O)n3C)[n+]4[O-])c2c1 | > 31.6 µM (inactive) | 34.2 µM (inactive) | > 38.3 µM (inactive) | 22.9 µM (inactive) | 42.1 µM (inactive) | > 67.1 µM (inactive) | 25.4 µM (inactive) | 30.2 µM (inactive) | > 84.3 µM (inactive) | > 45.7 µM (inactive) | 44.8 µM (inactive) | 46.3 µM (inactive) | 50.7 µM (inactive) | 38.4 µM (inactive) | > 100 µM (inactive) | > 60.4 µM (inactive) | 23.7 µM (inactive) | 33 µM (inactive) | 35.2 µM (inactive) | 36.7 µM (inactive)
3 | COC(=O)c1ccc2c(c1)CC1(C2)Cc2cc3c(cc2C1)CCC3 | > 100 µM (inactive) | > 100 µM (inactive) |  | > 100 µM (inactive) | > 100 µM (inactive) |  | > 100 µM (inactive) | > 100 µM (inactive) | > 100 µM (inactive) | > 100 µM (inactive) | > 100 µM (inactive) | > 100 µM (inactive) | > 100 µM (inactive) | > 100 µM (inactive) | > 100 µM (inactive) | > 100 µM (inactive) | > 100 µM (inactive) | > 100 µM (inactive) | 98.2 µM (inactive) | 
4 | CCOc1cc(NC(C)=O)ccc1C(=O)NN1C(=O)C(Oc2ccccc2)C1c1ccccc1 (stereo not given) | > 100 µM (inactive) | > 100 µM (inactive) | 45 µM (inactive) | 1.77 µM (inactive) | 70.5 µM (inactive) | 71.9 µM (inactive) | > 100 µM (inactive) | > 100 µM (inactive) | > 100 µM (inactive) | > 100 µM (inactive) | 57.8 µM (inactive) | > 100 µM (inactive) | > 100 µM (inactive) | > 100 µM (inactive) |  | 45.4 µM (inactive) | 78 µM (inactive) | 15.1 µM (inactive) | > 100 µM (inactive) | > 100 µM (inactive)
5 | Cn1cc(-c2n[nH]c(-c3ccc(Cl)cc3)nc2=O)c2ccccc21 | > 71.1 µM (inactive) | 1.91 µM (inactive) | 1.73 µM (inactive) | 1.6 µM (inactive) | 2.4 µM (inactive) | 2.07 µM (inactive) | 0.959 µM (active) | 1.57 µM (inactive) | 3.2 µM (inactive) | 0.184 µM (active) | 1.43 µM (inactive) | 0.399 µM (active) | 15.5 µM (inactive) | 2.3 µM (inactive) | 1.06 µM (active) | 2.04 µM (inactive) | 1.08 µM (active) | 1.8 µM (inactive) | 3.4 µM (inactive) | 6.34 µM (inactive)
6 | CC(=O)Nc1sc(Br)cc1S(=O)(=O)c1ccc(Cl)cc1 | 57.3 µM (inactive) | 71.1 µM (inactive) | 38.1 µM (inactive) | 35.1 µM (inactive) | 20 µM (inactive) | > 10 µM (inactive) | 19.3 µM (inactive) | 19.4 µM (inactive) | 46.6 µM (inactive) | 28.1 µM (inactive) | 31.2 µM (inactive) | 43.5 µM (inactive) | > 100 µM (inactive) | 17.9 µM (inactive) | 22.5 µM (inactive) | 47.2 µM (inactive) | 0.731 µM (active) | 12.8 µM (inactive) | 30.1 µM (inactive) | 71.9 µM (inactive)
7 | CCCCc1ccc(Nc2ncc3ncn(COCCO)c3n2)cc1 |  | 47.9 µM (inactive) | 25.6 µM (inactive) | 21.6 µM (inactive) | 26.8 µM (inactive) | 36.1 µM (inactive) | 34.1 µM (inactive) | 20.3 µM (inactive) | 33.3 µM (inactive) | 29.4 µM (inactive) | 27.3 µM (inactive) | 32 µM (inactive) | 18.9 µM (inactive) | 27 µM (inactive) | 21.1 µM (inactive) | 46.6 µM (inactive) | 29.3 µM (inactive) | 28.5 µM (inactive) | 25.2 µM (inactive) | 46.2 µM (inactive)
